# Test results published in US20110295343A1, “NEAR-INFRARED ELECTROMAGNETIC MODIFICATION OF CELLULAR STEADY-STATE MEMBRANE POTENTIALS” (priority 2008, published 2011).
# Values joined by “and” are separate entries in the source; they are usually repeats but may differ in a detail not shown here. Identical values can stand only once.
# System: MRSA (ATCC BAA-43)
# Experiment: MRSA/antimicrobial potentiation, CFU on TSB agar with and without antibiotic after laser (Example XXII, Experiments 1-4)
# Assay type: cell-based, Staphylococcus aureus subsp. aureus
# Conditions: for CFU/ml / AVG / CFU: agar with 30 μg/ml methicillin; for AVG: mean of plates; for CFU: replicate plates; for Meth Effect: CFU with methicillin / without; for Laser Effect (+Meth) / Laser Effect (+M): both on 30 μg/ml methicillin
# Procedure: Four separate experiments have been performed.
# Eight different laser dosages were used to treat a saline-suspension of logarithmically growing MRSA, labeled A1 to H1.
# The treated and a control untreated suspension were diluted and plated in triplicate on trypic soy agar with or without 30 μg/ml methicillin After 24 hrs of growth at 37° C. colonies were counted.
# CFU (colony forming units) were compared between the plates with and without methicillin for both control (untreated) and treated MRSA.
# The treated and a control untreated suspension were diluted and plated in triplicate on trypic soy agar with or without 30 μg/mlmethicillin.
# After 24 hrs of growth at 37° C. colonies were counted.
# The treated and a control untreated suspension were diluted and plated in pentuplicate on trypic soy agar with or without 30 μg/ml methicillin.
structure (smiles),measurement,setting,value
COc1cccc(OC)c1C(=O)N[C@@H]1C(=O)N2[C@@H]1SC(C)(C)[C@@H]2C(=O)O [Methicillin],CFU/ml,Exp#2 C2 Cont (no laser),1.66E+08 CFU/ml
same,AVG,Exp#2 C2 Cont (no laser),55.3 CFU
same,CFU,Exp#2 C2 Cont (no laser),42 CFU and 71 CFU and 53 CFU
same,Meth Effect,Exp#2 C2 Exp (laser treated),0.31
same,CFU/ml,Exp#2 C2 Exp (laser treated),3.80E+07 CFU/ml
same,AVG,Exp#2 C2 Exp (laser treated),12.7 CFU
same,CFU,Exp#2 C2 Exp (laser treated),16 CFU and 12 CFU and 10 CFU
same,Laser Effect (+Meth),"Exp#2 D2, laser Exp / Cont",0.04
same,Meth Effect,Exp#2 D2 Cont (no laser),0.61
same,CFU/ml,Exp#2 D2 Cont (no laser),1.56E+08 CFU/ml
same,AVG,Exp#2 D2 Cont (no laser),52 CFU
same,CFU,Exp#2 D2 Cont (no laser),20 CFU and 65 CFU and 71 CFU
same,Meth Effect,Exp#2 D2 Exp (laser treated),0.25
same,CFU/ml,Exp#2 D2 Exp (laser treated),7.00E+06 CFU/ml
same,AVG,Exp#2 D2 Exp (laser treated),2.3 CFU
same,CFU,Exp#2 D2 Exp (laser treated),5 CFU and 1 CFU (2×)
same,Laser Effect (+Meth),"Exp#2 E2, laser Exp / Cont",0.04
same,Meth Effect,Exp#2 E2 Cont (no laser),1.04
same,CFU/ml,Exp#2 E2 Cont (no laser),1.87E+08 CFU/ml
same,AVG,Exp#2 E2 Cont (no laser),62.3 CFU
same,CFU,Exp#2 E2 Cont (no laser),68 CFU and 66 CFU and 53 CFU
same,Meth Effect,Exp#2 E2 Exp (laser treated),0.24
same,CFU/ml,Exp#2 E2 Exp (laser treated),8.00E+06 CFU/ml
same,AVG,Exp#2 E2 Exp (laser treated),2.7 CFU
same,CFU,Exp#2 E2 Exp (laser treated),2 CFU (2×) and 4 CFU
same,Laser Effect (+Meth),"Exp#2 F2, laser Exp / Cont",0.22
same,Meth Effect,Exp#2 F2 Cont (no laser),0.81
same,CFU/ml,Exp#2 F2 Cont (no laser),2.13E+08 CFU/ml
same,AVG,Exp#2 F2 Cont (no laser),71 CFU
same,CFU,Exp#2 F2 Cont (no laser),62 CFU and 64 CFU and 87 CFU
same,Meth Effect,Exp#2 F2 Exp (laser treated),0.38
same,CFU/ml,Exp#2 F2 Exp (laser treated),4.70E+07 CFU/ml
same,AVG,Exp#2 F2 Exp (laser treated),15.7 CFU
same,CFU,Exp#2 F2 Exp (laser treated),13 CFU and 15 CFU and 19 CFU
same,Laser Effect (+Meth),"Exp#2 G2, laser Exp / Cont",0.1
same,Meth Effect,Exp#2 G2 Cont (no laser),1.04
same,CFU/ml,Exp#2 G2 Cont (no laser),2.50E+08 CFU/ml
same,AVG,Exp#2 G2 Cont (no laser),83.3 CFU
same,CFU,Exp#2 G2 Cont (no laser),75 CFU and 92 CFU and 83 CFU
same,Meth Effect,Exp#2 G2 Exp (laser treated),0.3
same,CFU/ml,Exp#2 G2 Exp (laser treated),2.50E+07 CFU/ml
same,AVG,Exp#2 G2 Exp (laser treated),8.3 CFU
same,CFU,Exp#2 G2 Exp (laser treated),10 CFU and 7 CFU and 8 CFU
same,Laser Effect (+Meth),"Exp#2 H2, laser Exp / Cont",0.17
same,Meth Effect,Exp#2 H2 Cont (no laser),0.73
same,CFU/ml,Exp#2 H2 Cont (no laser),2.30E+08 CFU/ml
same,AVG,Exp#2 H2 Cont (no laser),76.7 CFU
same,CFU,Exp#2 H2 Cont (no laser),76 CFU and 72 CFU and 82 CFU
same,Meth Effect,Exp#2 H2 Exp (laser treated),0.45
same,CFU/ml,Exp#2 H2 Exp (laser treated),3.80E+07 CFU/ml
same,AVG,Exp#2 H2 Exp (laser treated),12.7 CFU
same,CFU,Exp#2 H2 Exp (laser treated),13 CFU (2×) and 12 CFU
same,Laser Effect (+M),"Exp#3 A3, laser Exp / Cont",0.33
same,Meth Effect,Exp#3 A3 Cont (no laser),1.03
same,CFU/ml,Exp#3 A3 Cont (no laser),1.45E+08 CFU/ml
same,AVG,Exp#3 A3 Cont (no laser),48.4 CFU
same,Meth Effect,Exp#3 A3 Exp (laser treated),0.52
same,CFU/ml,Exp#3 A3 Exp (laser treated),4.86E+07 CFU/ml
same,AVG,Exp#3 A3 Exp (laser treated),16.2 CFU
same,Laser Effect (+M),"Exp#3 B3, laser Exp / Cont",0.27
same,Meth Effect,Exp#3 B3 Cont (no laser),0.99
same,CFU/ml,Exp#3 B3 Cont (no laser),2.14E+08 CFU/ml
same,AVG,Exp#3 B3 Cont (no laser),71.4 CFU
same,Meth Effect,Exp#3 B3 Exp (laser treated),0.61
same,CFU/ml,Exp#3 B3 Exp (laser treated),5.70E+07 CFU/ml
same,AVG,Exp#3 B3 Exp (laser treated),19 CFU
same,Laser Effect (+M),"Exp#3 C3, laser Exp / Cont",0.35
same,Meth Effect,Exp#3 C3 Cont (no laser),1.01
same,CFU/ml,Exp#3 C3 Cont (no laser),1.75E+08 CFU/ml
same,AVG,Exp#3 C3 Cont (no laser),58.4 CFU
same,Meth Effect,Exp#3 C3 Exp (laser treated),0.53
same,CFU/ml,Exp#3 C3 Exp (laser treated),6.06E+07 CFU/ml
same,AVG,Exp#3 C3 Exp (laser treated),20.2 CFU
same,Laser Effect (+M),"Exp#3 D3, laser Exp / Cont",0.07
same,Meth Effect,Exp#3 D3 Cont (no laser),1.01
same,CFU/ml,Exp#3 D3 Cont (no laser),1.54E+08 CFU/ml
same,AVG,Exp#3 D3 Cont (no laser),51.2 CFU
same,Meth Effect,Exp#3 D3 Exp (laser treated),0.39
same,CFU/ml,Exp#3 D3 Exp (laser treated),1.08E+07 CFU/ml
same,AVG,Exp#3 D3 Exp (laser treated),3.6 CFU
same,Laser Effect (+M),"Exp#3 E3, laser Exp / Cont",0.47
same,Meth Effect,Exp#3 E3 Cont (no laser),0.92
same,CFU/ml,Exp#3 E3 Cont (no laser),1.52E+08 CFU/ml
same,AVG,Exp#3 E3 Cont (no laser),50.6 CFU
same,Meth Effect,Exp#3 E3 Exp (laser treated),0.44
same,CFU/ml,Exp#3 E3 Exp (laser treated),7.08E+07 CFU/ml
same,AVG,Exp#3 E3 Exp (laser treated),23.6 CFU
same,CFU,Exp#3 E3 Exp (laser treated),15 CFU and 24 CFU and 26 CFU and 27 CFU
same,Laser Effect (+M),"Exp#3 F3, laser Exp / Cont",0.18
same,Meth Effect,Exp#3 F3 Cont (no laser),0.73
same,CFU/ml,Exp#3 F3 Cont (no laser),1.60E+08 CFU/ml
same,AVG,Exp#3 F3 Cont (no laser),53.2 CFU
same,Meth Effect,Exp#3 F3 Exp (laser treated),0.35
same,CFU/ml,Exp#3 F3 Exp (laser treated),2.94E+07 CFU/ml
same,AVG,Exp#3 F3 Exp (laser treated),9.8 CFU
same,Laser Effect (+M),"Exp#3 G3, laser Exp / Cont",0.12
same,Meth Effect,Exp#3 G3 Cont (no laser),1.17
same,CFU/ml,Exp#3 G3 Cont (no laser),2.03E+08 CFU/ml
same,AVG,Exp#3 G3 Cont (no laser),67.6 CFU
same,Meth Effect,Exp#3 G3 Exp (laser treated),0.37
same,CFU/ml,Exp#3 G3 Exp (laser treated),2.52E+07 CFU/ml
same,AVG,Exp#3 G3 Exp (laser treated),8.4 CFU
same,Laser Effect (+M),"Exp#3 H3, laser Exp / Cont",0.11
same,Meth Effect,Exp#3 H3 Cont (no laser),1.04
same,CFU/ml,Exp#3 H3 Cont (no laser),2.26E+08 CFU/ml
same,AVG,Exp#3 H3 Cont (no laser),75.2 CFU
same,Meth Effect,Exp#3 H3 Exp (laser treated),0.35
same,CFU/ml,Exp#3 H3 Exp (laser treated),2.52E+07 CFU/ml
same,AVG,Exp#3 H3 Exp (laser treated),8.4 CFU
same,synergistic effect of NIMELS with antibiotic in growth inhibition of MRSA colonies,FIG. 17,being potentiated by sub-lethal NIMELS dosimetry
